Assay results published in PubChem BioAssay AID2060907 (Molecular Pharmacology Branch, DTP, NCI, 2025).

Tested on: 388556-164-R-J1-PDC complex spheroid viability
Test: Anticancer human tumor 388556-164-R-J1-PDC patient-derived colon adenocarcinoma cell line growth inhibition [RAS]
Conditions: for IC50: curve of first compound; for viability, T/C: stronger effect = lower value
In short: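 Agents were tested in combination matrices in half-log decrements from a top concentration at or near clinical Cmax (10 microM if undetermined). Targets were multi-cell spheroids of tumour lines plus HUVEC and MSC stromal cells.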

[1] = second compound 0.0316 µM, first compound 0.0316 µM
[2] = second compound 0.0316 µM, first compound 0.1 µM
[3] = second compound 0.0316 µM, first compound 0.316 µM
[4] = second compound 0.0316 µM, first compound 1 µM
[5] = second compound 0.1 µM, first compound 0.0316 µM
[6] = second compound 0.1 µM, first compound 0.1 µM
[7] = second compound 0.1 µM, first compound 0.316 µM
[8] = second compound 0.1 µM, first compound 1 µM
[9] = second compound 0.316 µM, first compound 0.0316 µM
[10] = second compound 0.316 µM, first compound 0.1 µM
[11] = second compound 0.316 µM, first compound 0.316 µM
[12] = second compound 0.316 µM, first compound 1 µM
[13] = second compound 1 µM, first compound 0.0316 µM
[14] = second compound 1 µM, first compound 0.1 µM
[15] = second compound 1 µM, first compound 0.316 µM
[16] = second compound 1 µM, first compound 1 µM
[17] = second compound 3.16 µM, first compound 0.0316 µM
[18] = second compound 3.16 µM, first compound 0.1 µM
[19] = second compound 3.16 µM, first compound 0.316 µM
[20] = second compound 3.16 µM, first compound 1 µM
[21] = second compound 10 µM, first compound 0.0316 µM
[22] = second compound 10 µM, first compound 0.1 µM
[23] = second compound 10 µM, first compound 0.316 µM
[24] = second compound 10 µM, first compound 1 µM
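Also: spheroids exposed to compound for 7 days before readout.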
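For viability, T/C in this document: 100% = DMSO vehicle control luminescence.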

Work on `C=CC(=O)N1CCN(c2nc(OCC3CCCN3C)nc3c(F)c(-c4nc(N)cc(C)c4C(F)(F)F)c(Cl)cc23)C(C)C1` (centres undefined) + C#Cc1c(F)ccc2cc(O)cc(-c3ncc4c(N5CC6CCC(C5)N6)nc(OCC56CCCN5CC(F)C6)nc4c3F)c12 yielded an IC50 (second compound 0.0316 µM) of over 1000 nM, an IC50 (second compound 0.1 µM) of over 1000 nM and an IC50 (second compound 0.316 µM) of over 1000 nM. For the same molecule, the IC50 (second compound 1 µM) was over 1000 nM, the IC50 (second compound 3.16 µM) was over 1000 nM and the IC50 (second compound 10 µM) was over 1000 nM. It also gave a viability, T/C (second compound 0.0316 µM, first compound 0.00316 µM) of 102%, a viability, T/C (second compound 0.0316 µM, first compound 0.01 µM) of 117% and a viability, T/C [1] of 110%. For the same molecule, the viability, T/C [2] was 107%, the viability, T/C [3] was 110% and the viability, T/C [4] was 111%. It also gave a viability, T/C (second compound 0.1 µM, first compound 0.00316 µM) of 108%, a viability, T/C (second compound 0.1 µM, first compound 0.01 µM) of 109% and a viability, T/C [5] of 105%. The viability, T/C [6] was 109%, the viability, T/C [7] was 112% and the viability, T/C [8] was 102%. For the same molecule, the viability, T/C (second compound 0.316 µM, first compound 0.00316 µM) was 99.4%, the viability, T/C (second compound 0.316 µM, first compound 0.01 µM) was 94.5% and the viability, T/C [9] was 97.4%. The viability, T/C [10] was 102%, the viability, T/C [11] was 111% and the viability, T/C [12] was 96.2%. For the same molecule, the viability, T/C (second compound 1 µM, first compound 0.00316 µM) was 95.3%, the viability, T/C (second compound 1 µM, first compound 0.01 µM) was 93.1% and the viability, T/C [13] was 75.5%. It also gave a viability, T/C [14] of 89.2%, a viability, T/C [15] of 107% and a viability, T/C [16] of 86.5%. The viability, T/C (second compound 3.16 µM, first compound 0.00316 µM) was 84.4%, the viability, T/C (second compound 3.16 µM, first compound 0.01 µM) was 80.9% and the viability, T/C [17] was 85.3%. The viability, T/C [18] was 92.1%, the viability, T/C [19] was 99.6% and the viability, T/C [20] was 80%. For the same molecule, the viability, T/C (second compound 10 µM, first compound 0.00316 µM) was 72.3%, the viability, T/C (second compound 10 µM, first compound 0.01 µM) was 58.4% and the viability, T/C [21] was 68.7%. It also gave a viability, T/C [22] of 68.8%, a viability, T/C [23] of 76.2% and a viability, T/C [24] of 55.8%.

Molecule `CC(=O)OC12COC1CC(O)C1(C)C(=O)C(O)C3=C(C)C(OC(=O)C(O)C(NC(=O)OC(C)(C)C)c4ccccc4)CC(O)(C(OC(=O)c4ccccc4)C21)C3(C)C` (centres undefined) + C#Cc1c(F)ccc2cc(O)cc(-c3ncc4c(N5CC6CCC(C5)N6)nc(OCC56CCCN5CC(F)C6)nc4c3F)c12 has an IC50 (second compound 0.0316 µM) of over 10000 nM, an IC50 (second compound 0.1 µM) of over 10000 nM and an IC50 (second compound 0.316 µM) of over 10000 nM. For the same molecule, the IC50 (second compound 1 µM) was over 10000 nM, the IC50 (second compound 3.16 µM) was 6130 nM and the IC50 (second compound 10 µM) was 811 nM. For the same molecule, the viability, T/C [1] was 80.7%, the viability, T/C [2] was 80.8% and the viability, T/C [3] was 76.1%. It also gave a viability, T/C [4] of 76.1%, a viability, T/C (second compound 0.0316 µM, first compound 3.16 µM) of 74.5% and a viability, T/C (second compound 0.0316 µM, first compound 10 µM) of 75.1%. The viability, T/C [5] was 87.6%, the viability, T/C [6] was 80.8% and the viability, T/C [7] was 71.5%. For the same molecule, the viability, T/C [8] was 75.2%, the viability, T/C (second compound 0.1 µM, first compound 3.16 µM) was 78.9% and the viability, T/C (second compound 0.1 µM, first compound 10 µM) was 75.4%. The viability, T/C [9] was 82.5%, the viability, T/C [10] was 73.7% and the viability, T/C [11] was 67.4%. It also gave a viability, T/C [12] of 69.7%, a viability, T/C (second compound 0.316 µM, first compound 3.16 µM) of 77.1% and a viability, T/C (second compound 0.316 µM, first compound 10 µM) of 59%. For the same molecule, the viability, T/C [13] was 78.5%, the viability, T/C [14] was 74.4% and the viability, T/C [15] was 59.6%. It also gave a viability, T/C [16] of 67.4%, a viability, T/C (second compound 1 µM, first compound 3.16 µM) of 69% and a viability, T/C (second compound 1 µM, first compound 10 µM) of 49.8%. For the same molecule, the viability, T/C [17] was 72.8%, the viability, T/C [18] was 58.2% and the viability, T/C [19] was 59%. The viability, T/C [20] was 65.8%, the viability, T/C (second compound 3.16 µM, first compound 3.16 µM) was 63.3% and the viability, T/C (second compound 3.16 µM, first compound 10 µM) was 40.2%. It also gave a viability, T/C [21] of 56.6%, a viability, T/C [22] of 48.2% and a viability, T/C [23] of 52.4%. It also gave a viability, T/C [24] of 54.7%, a viability, T/C (second compound 10 µM, first compound 3.16 µM) of 40.1% and a viability, T/C (second compound 10 µM, first compound 10 µM) of 35.5%.
